Test results reported in patent publication US20130337564A1, “Treatment of Pluripotent Cells” (Janssen Biotech, Inc., priority 2012, published 2013).
Values joined by “and” are separate entries in the source; they are usually repeats but may differ in a detail not shown here. Equal values may be shown once.

Tests used:
Format in all cases: cell-based
[1] = system: cells expressing pluripotency markers derived from human embryonic stem cells; experiment: MTS viability (toxicity) assay of cells expressing pluripotency markers; set-up: Raw data (duplicate), first replicate / Average: unit not given here; settings: for viability at 10 µM: Homo sapiens, Embryonic stem cell; for viability at 10 µM / % Control: viability of cells expressing pluripotency markers, relative to control; for Raw data (duplicate), first replicate / Raw data (duplicate), second replicate: MTS viability assay raw reading; for Raw data (duplicate), first replicate: replicate 1; for Raw data (duplicate), second replicate: replicate 2; for Average: average of duplicate MTS raw readings; for Average of raw data (duplicate), optical density at 490 nm: MTS on day 4
Method in brief: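 Cells expressing pluripotency markers, derived from human embryonic stem cells, were plated at 20,000 cells per well in 96-well clear-bottom plates and cultured overnight. Test compounds were applied in assay medium on days 1 and 2, and compound-free medium on days 3 and 4. On day 4, MTS was added and optical density at 490 nm was read in duplicate.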

[2] = system: human embryonic stem cells (H9 line); experiment: High content screening assay: cell number (proliferative response); settings: for fold induction at 10 µM: Homo sapiens, Embryonic stem cell, read-out: Proliferative Response, Fold over Wnt 3a/AA control
Method in brief: (§1)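 H9 hESCs on MATRIGEL treated days 1-2 with 10 μM compound in DMEM:F12, 0.5% FCS, 100 ng/ml activin A; days 3-4 with 2% FCS plus activin A without compound. Fixed cells immunostained for Sox17 or HNF-3beta with Draq5 nuclear counterstain. Cell number and staining intensity quantified by high-content imaging, 12 fields/well.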

[3] = system: Sox17 expression in human embryonic stem cells (H9 line); experiment: High content screening assay: Sox17 protein expression (differentiation); settings: for SOX-17 Expression Fold over Wnt 3a/AA control: total intensity normalised to Wnt 3a/AA control; for fold induction at 10 µM: Homo sapiens, Embryonic stem cell, read-out: SOX17 Expression, Fold over Wnt 3a/AA control
Method in brief: as §1

[4] = 10 μM test compound with 100 ng/ml activin A on days 1-2, H9, total cell number by IN Cell Analyzer, strong and moderate hits
[5] = cell number in the wells analysed for HNF-3b expression
[6] = cell number in the wells analysed for SOX-17 expression
[7] = cell number in the wells analysed for HNF-3b expression, normalised to Wnt 3a/AA control
[8] = cell number in the wells analysed for SOX-17 expression, normalised to Wnt 3a/AA control
[9] = 10 μM test compound with 100 ng/ml activin A on days 1-2, H9, total intensity by IN Cell Analyzer, strong and moderate hits

Row | Structure (SMILES) | viability at 10 µM [1] [%] | Raw data (duplicate), first replicate [1] | Raw data (duplicate), second replicate [1] | Average [1] | fold induction at 10 µM [2, 4] | Proliferative Response Total cells [2, 5] | Proliferative Response Total cells [2, 6] | SOX-17 Expression Total Intensity [3] | % Control [1] | Proliferative Response Fold over Wnt 3a/AA control [2, 7] [fold] | Proliferative Response Fold over Wnt 3a/AA control [2, 8] [fold] | SOX-17 Expression Fold over Wnt 3a/AA control [3] [fold] | Proliferative Response Fold over Wnt 3a/AA control [2, 4] | SOX17 Expression, Fold over Wnt 3a/AA control [3, 9] | fold induction at 10 µM [3, 9] | Average of raw data (duplicate), optical density at 490 nm ([1]; cmpd conc 2.5 μM) | Average of raw data (duplicate), optical density at 490 nm ([1]; cmpd conc 5 μM) | Average of raw data (duplicate), optical density at 490 nm ([1]; cmpd conc 10 μM)
1 | O=C(Nc1ccc(C(=O)N2CC3CSCCN3Cc3ccccc32)c(Cl)c1)c1cc(Cl)cc(Cl)c1 (stereo not drawn) [Compound 166, 3,5-Dichloro-N-[3-chloro-4-(3,4,12,12a-tetrahydro-1H-[1,4]thiazino[3,4-c][1,4]benzodiazepin-11(6H)-ylcarbonyl)phenyl]benzamide] | 74.8 | 0.615 | 0.635 | 0.625 | 0.621 | 787 | 562 | 11388240 | – | – | – | – | – | – | – | – | – | –
2 | O=C1NC(=O)C2=C1c1cn(c3ncccc13)CCOCCOCCOCCOCCOCCn1cc2c2cccnc21 [Compound 168, 10,11,13,14,16,17,19,20,22,23,25,26-Dodecahydro-1H-9,4:27,32-di(metheno)dipyrido[2,3-q:3′,2′-w]pyrrolo[3,4-t][1,4,7,10,13,16,25]pentaoxadiazacycloheptacosine-1,3(2H)-dione] | – | 0.610 | 0.628 | 0.619 | – | 57 | 118 | 2574279 | 73.9% | 0.04523 | 0.07046 | 0.0837 | – | – | – | – | – | –
3 | O=C1NC(=O)C2=C1c1cn(c3ncccc13)CCOCCOCCOCCOCCn1cc2c2cccnc21 [Compound 169] | – | 0.681 and 0.636 | 0.698 and 0.621 | 0.689 and 0.629 | – | – | – | – | 84.5% and 75.4% | – | – | – | 1.0764 Fold over Wnt 3a/AA control | 1.0342 Fold over Wnt 3a/AA control | – | – | – | –
4 | CN(C)CCCn1cc(C2=C(c3cccc4ccccc34)C(=O)NC2=O)c2cccnc21 [Compound 175, 3-{1-[3-(Dimethylamino)propyl]-1H-pyrrolo[2,3-b]pyridin-3-yl}-4-naphthalen-1-yl-1H-pyrrole-2,5-dione] | 3 | 0.135 | 0.158 | 0.146 | – | 42 | 1 | 0 | – | – | – | – | – | – | – | – | – | –
5 | O=C1NC(=O)C2=C1c1cn(c3ncccc13)CCOCCOCCn1cc2c2cccnc21 [Compound 180, 6,7,9,10,12,13-Hexahydro-20H-5,23:14,19-di(metheno)dipyrido[2,3-h:3′,2′-n]pyrrolo[3,4-k][1,4,7,16]dioxadiazacyclooctadecine-20,22(21H)-dione] | – | 0.141 and 0.611 | 0.128 and 0.628 | – | – | 4 | 3 | 0 | – | 0.003155 | 0.001796 | 0.0000 | – | – | – | – | – | –
6 | O=C1NC(=O)C(c2cn(CCCO)c3ncccc23)=C1c1cn(CCCO)cn1 [Compound 182, 3-[1-(3-Hydroxypropyl)-1H-imidazol-4-yl]-4-[1-(3-hydroxypropyl)-1H-pyrrolo[2,3-b]pyridin-3-yl]-1H-pyrrole-2,5-dione] | 100 | 0.802 | 0.801 | 0.802 | – | 425 | 20 | 0 | – | – | – | – | – | – | – | – | – | –
7 | O=C1NC(=O)C(c2cn(CCCO)c3ncccc23)=C1c1cn(CCO)cn1 [Compound 183, 3-[1-(2-Hydroxyethyl)-1H-imidazol-4-yl]-4-[1-(3-hydroxypropyl)-1H-pyrrolo[2,3-b]pyridin-3-yl]-1H-pyrrole-2,5-dione] | 82.6 | 0.792 | 0.572 | 0.682 | – | 5 | 7 | 48154 | – | – | – | – | – | – | – | – | – | –
8 | O=C1NC(=O)C(c2cn(CCCO)c3ncccc23)=C1c1ccn(CCCO)n1 [Compound 185, 3-[1-(3-Hydroxypropyl)-1H-pyrazol-3-yl]-4-[1-(3-hydroxypropyl)-1H-pyrrolo[2,3-b]pyridin-3-yl]-1H-pyrrole-2,5-dione] | 104 | 0.830 | 0.807 | 0.818 | 0.944 | – | – | – | – | – | – | – | – | – | 0.889 | – | – | –
9 | CN(CCO)CCCn1nc(C2=C(c3cn(-c4cccnc4)c4ccccc34)C(=O)NC2=O)c2ccccc21 [Compound 198, 3-(1-{3-[(2-Hydroxyethyl)(methyl)amino]propyl}-1H-indazol-3-yl)-4-(1-pyridin-3-yl-1H-indol-3-yl)-1H-pyrrole-2,5-dione] | 112 | 0.856 | 0.905 | 0.881 | – | 2594 | 2386 | 20866647 | – | – | – | – | – | – | – | 0.7480 | 0.6893 | 0.4619
10 | O=C1NC(=O)C(c2cn(-c3cccnc3)c3ccccc23)=C1c1cn(CCO)c2ccccc12 [Compound 206, 3-[1-(2-Hydroxyethyl)-1H-indol-3-yl]-4-(1-pyridin-3-yl-1H-indol-3-yl)-1H-pyrrole-2,5-dione] | 110 | 0.845 | 0.877 | 0.861 | 1.42 | 10331 | 11886 | 223646667 | – | – | – | – | – | – | 1.74 | 0.7517 | 0.7326 | 0.1793
11 | Cn1ccc(C2=C(c3cn(CCCO)c4ncccc34)C(=O)NC2=O)n1 [Compound 209] | 121 | 0.971 | 0.913 | 0.942 | – | 4209 | 2473 | 80676667 | – | – | – | – | – | – | 0.628 | – | – | –
12 | COc1ccccc1C1=C(c2cn(-c3cccnc3)c3ccccc23)C(=O)NC1=O [Compound 216, 3-[2-(Methyloxy)phenyl]-4-(1-pyridin-3-yl-1H-indol-3-yl)-1H-pyrrole-2,5-dione] | 92.2 | 0.768 | 0.724 | 0.746 | – | 8479 | 5991 | 252690000 | – | – | – | – | – | – | – | – | – | –
13 | Cc1c[nH]c(-c2cnc(NCCNc3ccc(C#N)cn3)nc2-c2ccc(Cl)cc2Cl)n1 [Compound 221, 6-[(2-{[4-(2,4-Dichlorophenyl)-5-(4-methyl-1H-imidazol-2-yl)pyrimidin-2-yl]amino}ethyl)amino]pyridine-3-carbonitrile] | 98.8 | – | – | – | 1.38 | 21203 | 21070 | 1089750000 | – | – | – | – | – | – | 1.12 | 0.9324 | 0.7191 | 0.6128
14 | CC(C)(O)CCn1nc(C2=C(c3cn(-c4cccnc4)c4ccccc34)C(=O)NC2=O)c2ccccc21 [Compound 223, 3-[1-(3-Hydroxy-3-methylbutyl)-1H-indazol-3-yl]-4-(1-pyridin-3-yl-1H-indol-3-yl)-1H-pyrrole-2,5-dione] | 97.8 | 0.770 | 0.786 | 0.778 | 0.948 | 9871 | 14529 | 1013360000 | – | – | – | – | – | – | 1.04 | 0.8427 | 0.8021 | 0.7287
